The record followed here is patent US12049439B2 (OrsoBio, Inc., priority 2018, dated 2024).

Bounds are passed on as bounds.

The EC50 is the concentration that produces a half-maximal response.

The first test has as its system PC-3 cells. Description: PC-3 Oxygen Rate Consumption (OCR) Assay. It counts as cell-based. Particulars: Homo sapiens, 0.05 h, medium with 2% FBS, OCR at 3-min post-injection normalized to % increase over DMSO-treated cells, concentration for half-maximal OCR increase, read-out: EC50-PC3-OCR-FBS-3min. The essentials:
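PC-3 cells seeded a day before, equilibrated 1 h in XF medium with 10 mM glucose, 1 mM pyruvate, 2% FBS, non-CO2 at 37 °C. Compound injected after basal OCR reads; OCR at 3 min post-injection normalized as % increase over DMSO, EC50 = half-maximal increase; six replicates.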
Turning to `CC(C)(C)S(=O)(=O)Nc1ccc(Br)cc1C(=O)NC12CC(c3ccccc3)(C1)C2` [Example 94, 5-bromo-2-((1,1-dimethylethyl)sulfonamido)-N-(3-phenylbicyclo[1.1.1]pentan-1-yl)benzamide], the 50% effective concentration (EC50) is 6.16 µM.

For the compound `CS(=O)(=O)Nc1cc(F)ccc1C(=O)NC12CC(C1)C2` [Example 137, N-(bicyclo[1.1.1]pentan-1-yl)-4-fluoro-2-(methylsulfonamido)benzamide], the concentration for a half-maximal effect (EC50) was not below 100 µM.

With `CS(=O)(=O)c1ccc(S(=O)(=O)Nc2cc(C(F)(F)F)ccc2C(=O)NC23CCC(CC2)C3)cc1` [Example 45, N-(bicyclo[2.2.1]heptan-1-yl)-2-((4-(methylsulfonyl)phenyl)sulfonamido)-4-(trifluoromethyl)benzamide], the EC50 was found to be 5.45 µM.

On to `CS(=O)(=O)c1ccc(S(=O)(=O)Nc2cc(S(F)(F)(F)(F)F)ccc2C(=O)NC23CC(C(F)(F)F)(C2)C3)cc1` [Example 154, 2-((4-(methylsulfonyl)phenyl)sulfonamido)-4-(pentafluoro-λ^6-sulfanyl)-N-(3-(trifluoromethyl)bicyclo[1.1.1]pentan-1-yl)benzamide], for which the concentration giving a half-maximal response (EC50) came out at 8.02 µM.

For the compound `O=C(NC12CC(C(F)(F)F)(C1)C2)c1ccc(F)cc1NS(=O)(=O)c1ncccn1` [Example 149, 4-fluoro-2-(pyrimidine-2-sulfonamido)-N-(3-(trifluoromethyl)bicyclo[1.1.1]pentan-1-yl)benzamide], the EC50 was not below 20 µM.

With `CS(=O)(=O)Nc1cc(F)ccc1C(=O)NC12CC(C(F)(F)F)(C1)C2` [Example 1, 4-fluoro-2-(methylsulfonamido)-N-(3-(trifluoromethyl)bicyclo[1.1.1]pentan-1-yl)benzamide], the EC50 was found to be 13.1 µM.

With `CC(C)(C)S(=O)(=O)Nc1ccc(C(F)(F)F)cc1C(=O)NC12CCC(C#N)(CC1)CC2` [Example 191, N-(4-cyanobicyclo[2.2.2]octan-1-yl)-2-((1,1-dimethylethyl)sulfonamido)-5-(trifluoromethyl)benzamide], the EC50 worked out at 1.76 µM.

As for `N#CC12CCC(NC(=O)c3ccc(SC(F)(F)F)cc3NS(=O)(=O)C3(C#N)CC3)(CC1)CC2` [Example 226, N-(4-cyanobicyclo[2.2.2]octan-1-yl)-2-((1-cyanocyclopropane)-1-sulfonamido)-4-((trifluoromethyl)thio)benzamide], the EC50 is 7.1 µM.

In the case of `CC(C)(C)c1ccc(S(=O)(=O)Nc2cc(C(F)(F)F)ccc2C(=O)NC23CC(C(F)(F)F)(C2)C3)cc1` [Example 4, 2-((4-(tert-butyl)phenyl)sulfonamido)-4-(trifluoromethyl)-N-(3-(trifluoromethyl)bicyclo[1.1.1]pentan-1-yl)benzamide], the EC50 was 0.619 µM.

Take `CS(=O)(=O)c1ccc(S(=O)(=O)Nc2ccc(Cl)cc2C(=O)NC23CC(C(F)(F)F)(C2)C3)cc1` [Example 90, 5-chloro-2-((4-(methylsulfonyl)phenyl)sulfonamido)-N-(3-(trifluoromethyl)bicyclo[1.1.1]pentan-1-yl)benzamide]: the half-maximal effective concentration (EC50) is 2.67 µM.

As for `N#Cc1ccc(S(=O)(=O)Nc2cc(C(F)(F)F)ccc2C(=O)NC23CC(C(F)(F)F)(C2)C3)cc1` [Example 158, 2-((4-cyanophenyl)sulfonamido)-4-(trifluoromethyl)-N-(3-(trifluoromethyl)bicyclo[1.1.1]pentan-1-yl)benzamide], the EC50 amounted to 1.43 µM.

Regarding `COC1CN(S(=O)(=O)Nc2ccc(C(F)(F)F)cc2C(=O)NC23CCC(C#N)(CC2)CC3)C1` [Example 182, N-(4-cyanobicyclo[2.2.2]octan-1-yl)-2-((3-methoxyazetidine)-1-sulfonamido)-5-(trifluoromethyl)benzamide], the concentration giving a half-maximal response (EC50) was determined as 13 µM.

Take `O=C(NC12CC(C(F)(F)F)(C1)C2)c1ccccc1NS(=O)(=O)c1ccc(Cl)cc1Cl` [Example 141, 2-((2,4-dichlorophenyl)sulfonamido)-N-(3-(trifluoromethyl)bicyclo[1.1.1]pentan-1-yl)benzamide]: the EC50 worked out at 1.18 µM.

Consider `O=C(NC12CC(C(F)(F)F)(C1)C2)c1ccc(C(F)(F)F)cc1NS(=O)(=O)c1ccc(F)cc1` [Example 109], for which the EC50 is 0.38 µM.

As for `O=C(NC12CCC(C(F)(F)F)(CC1)CC2)c1ccc(F)cc1NS(=O)(=O)C1CCS(=O)(=O)CC1` [Example 238, 2-((1,1-dioxidotetrahydro-2H-thiopyran)-4-sulfonamido)-4-fluoro-N-(4-(trifluoromethyl)bicyclo[2.2.2]octan-1-yl)benzamide], the half-maximal effective concentration (EC50) was 29.7 µM.

`N#CC12CCC(NC(=O)c3ccc(Cl)cc3NS(=O)(=O)CCC(F)(F)F)(CC1)CC2` [Example 135, 4-chloro-N-(4-cyanobicyclo[2.2.2]octan-1-yl)-2-((3,3,3-trifluoropropyl)sulfonamido)benzamide]: the concentration giving a half-maximal response (EC50) turned out to be 1.62 µM.

`CC(C)(C)S(=O)(=O)Nc1ccc(C(F)(F)F)cc1C(=O)NC12CC3CC(CC(C#N)(C3)C1)C2` [Example 176, N-((1R,5R)-3-cyanoadamantan-1-yl)-2-((1,1-dimethylethyl)sulfonamido)-5-(trifluoromethyl)benzamide]: the EC50 was determined as 1.7 µM.

`CS(=O)(=O)Nc1ccc(C(F)(F)F)cc1C(=O)NC12CCC(C(F)F)(CC1)CC2` [Example 81, N-(4-(difluoromethyl)bicyclo[2.2.2]octan-1-yl)-2-(methylsulfonamido)-5-(trifluoromethyl)benzamide]: the concentration for a half-maximal effect (EC50) came to 2.39 µM.

As for `CS(=O)(=O)Nc1cc(Br)ccc1C(=O)NC12CC(C(F)(F)F)(C1)C2` [Example 48, 4-bromo-2-(methylsulfonamido)-N-(3-(trifluoromethyl)bicyclo[1.1.1]pentan-1-yl)benzamide], the EC50 turned out to be 5.81 µM.

Turning to `CCCS(=O)(=O)Nc1ccc(C#N)cc1C(=O)NC12CCC(C#N)(CC1)CC2` [Example 104, 5-cyano-N-(4-cyanobicyclo[2.2.2]octan-1-yl)-2-(propylsulfonamido)benzamide], the 50% effective concentration (EC50) was determined as 37.5 µM.

As to `Cn1cc(S(=O)(=O)Nc2cc(C(F)(F)F)ccc2C(=O)NC23CC(c4ccccc4)(C2)C3)cn1` [Example 39, 2-((1-methyl-1H-pyrazole)-4-sulfonamido)-N-(3-phenylbicyclo[1.1.1]pentan-1-yl)-4-(trifluoromethyl)benzamide], the 50% effective concentration (EC50) stood at 7.34 µM.

In the case of `O=C(NC12CC(C(F)(F)F)(C1)C2)c1ccc(F)cc1NS(=O)(=O)C1CC1` [Example 2, 2-(cyclopropanesulfonamido)-4-fluoro-N-(3-(trifluoromethyl)bicyclo[1.1.1]pentan-1-yl)benzamide], the half-maximal effective concentration (EC50) came to 3.65 µM.

Regarding `CS(=O)(=O)c1ccc(S(=O)(=O)Nc2ccc(C(F)(F)F)cc2C(=O)NC23CC(C(F)(F)F)(C2)C3)cc1` [Example 86, 2-((4-(methylsulfonyl)phenyl)sulfonamido)-5-(trifluoromethyl)-N-(3-(trifluoromethyl)bicyclo[1.1.1]pentan-1-yl)benzamide], the EC50 was 8.27 µM.

On to `CC(C)(C)S(=O)(=O)Nc1ccc(C(F)(F)F)cc1C(=O)NC12CCC(O)(CC1)CC2` [Example 171, 2-((1,1-dimethylethyl)sulfonamido)-N-(4-hydroxybicyclo[2.2.2]octan-1-yl)-5-(trifluoromethyl)benzamide], for which the EC50 stood at 112 µM.

For `Cn1cc(S(=O)(=O)Nc2cc(C(F)(F)F)ccc2C(=O)NC23CC(C(F)(F)F)(C2)C3)cn1` [Example 19, 2-((1-methyl-1H-pyrazole)-4-sulfonamido)-4-(trifluoromethyl)-N-(3-(trifluoromethyl)bicyclo[1.1.1]pentan-1-yl)benzamide], the EC50 was determined as 6.41 µM.

For the compound `NC(=O)c1ccc(S(=O)(=O)Nc2cc(C(F)(F)F)ccc2C(=O)NC23CC(C2)C3)cc1` [Example 52, N-(bicyclo[1.1.1]pentan-1-yl)-2-((4-carbamoylphenyl)sulfonamido)-4-(trifluoromethyl)benzamide], the 50% effective concentration (EC50) was determined as 200 µM.

On to `CS(=O)(=O)Nc1cc(F)ccc1C(=O)NC12CCC(F)(CC1)CC2` [Example 199, 4-fluoro-N-(4-fluorobicyclo[2.2.2]octan-1-yl)-2-(methylsulfonamido)benzamide], for which the concentration giving a half-maximal response (EC50) is not below 100 µM.

Turning to `CC(C)S(=O)(=O)Nc1cc(C(F)(F)F)ccc1C(=O)NC12CC(C(F)(F)F)(C1)C2` [Example 56, 2-((1-methylethyl)sulfonamido)-4-(trifluoromethyl)-N-(3-(trifluoromethyl)bicyclo[1.1.1]pentan-1-yl)benzamide], the 50% effective concentration (EC50) was determined as 0.825 µM.

As for `CS(=O)(=O)Nc1ccc(C(F)(F)F)cc1C(=O)NC12CCC(C(F)(F)F)(CC1)CC2` [Example 183, 2-(methylsulfonamido)-5-(trifluoromethyl)-N-(4-(trifluoromethyl)bicyclo[2.2.2]octan-1-yl)benzamide], the EC50 stood at 0.824 µM.

As to `CS(=O)(=O)c1ccc(S(=O)(=O)Nc2ccc(C(F)(F)F)cc2C(=O)NC23CC(c4ccccc4)(C2)C3)cc1` [Example 87, 2-((4-(methylsulfonyl)phenyl)sulfonamido)-N-(3-phenylbicyclo[1.1.1]pentan-1-yl)-5-(trifluoromethyl)benzamide], the EC50 came out at 3.28 µM.

Still in this test, the particulars now being: medium with 2% FBS, OCR at 3-min post-injection normalized to % increase over DMSO-treated cells, concentration for half-maximal OCR increase, read-out: EC50-PC3-OCR-FBS-3min.
For the compound `N#CC1(S(=O)(=O)Nc2ccc(C(F)(F)F)cc2C(=O)NC23CC(C(F)(F)F)(C2)C3)CC1` [Example 108, 2-((1-cyanocyclopropane)-1-sulfonamido)-5-(trifluoromethyl)-N-(3-(trifluoromethyl)bicyclo[1.1.1]pentan-1-yl)benzamide], the concentration giving a half-maximal response (EC50) was found to be 8.44 µM.

On to `CS(=O)(=O)Nc1c(F)cccc1C(=O)NC12CC(C(F)(F)F)(C1)C2` [Example 145, 3-fluoro-2-(methylsulfonamido)-N-(3-(trifluoromethyl)bicyclo[1.1.1]pentan-1-yl)benzamide], for which the EC50 is not below 100 µM.
